Experimental data: patent publication US20050222167A1, “9-aminoacridine derivatives and process for the preparation thereof” (priority 2002, published 2005)
In brackets after ≈: the same amount, converted by molar mass.

Experiments:
[1] = test system: SKMEL-2 (human melanoma); assay: SRB assay, in vitro antitumor effect against human tumor cell lines; format: cell-based; conditions: SK-MEL-2, SRB assay, 48 hours
Method: (§1) Experimental 1: In vitro antitumor effect against human tumor cell lines.
(§2) A. Tumor cell lines: A549 (human non-small lung cell)
(§3) • SKOV-3 (human ovarian) • HCT-15 (human colon) • XF-498 (human CNS) • SKMEL-2 (human melanoma) B. Method: SRB Assay • a. Human solid tumor cell lines, A549(non-small lung cell), SKMEL-2(melanoma), HCT-15(colon), SKOV-3(ovarian) and XF-498(CNS) were cultured in 5% CO2 incubators using the RPMI 1640 media containing 10% FBS at 37° C., while with transfer-culturing successively once or twice per week. Cell cultures were dissolved in a solution of 0.25% trysin and 3 mmol CDTA PBS(−) to separate the cells sticked on the culture media. • b. 5 103˜2 104 cells were added into each well of 96-well plate and cultured in 5% CO2 incubator at 37° C. for 24 hours. • c. Each sample drug was dissolved in a little DMSO and diluted with the used medium to a prescribed concentration for experiment, while the final concentration of DMSO was adjusted below 0.5%. • d. Medium of each well cultured for 24 hours as above b. was removed by aspiration. Each 200 μl of drug samples prepared in c. was added into each well and the wells were cultured for 48 hours. Tz (time zero) plates were collected at the point of time drugs were added. • e. According to the SRB assay method, cell fixing with TCA, staining with 0.4% SRB solution, washing with 1% acetic acid and elution of dye with 10 mmol Tris solution were carried out on Tz plates and culture-ended plates, and then, OD values were measured at 520 nm. C. Calculation of Result • a. Time zero (Tz) value was determined with measuring the SRB protein value at the point of time drugs were added. • b. Control value (C) was determined with the OD value of an well untreated with drug. • c. Drug-treated test value (T) was determined with the OD value of drug-treated well. • d. Effects of drugs were estimated with growth stimulation, net growth inhibition and net killing calculated from Tz, C and T values. • e. If T≧Tz, cellular response function was calculated by 100×(T−Tz)/(C−Tz), and, if T<Tz, by 100 (T−Tz)/Tz.

[2] = test system: HCT-15 (human colon); assay: as above; format: cell-based; conditions: HCT-15, SRB assay, 48 hours
Method: as §1, §2, §3

[3] = test system: SKOV-3 (human ovarian); assay: as above; format: cell-based; conditions: SK-OV-3, SRB assay, 48 hours
Method: as §1, §2, §3

[4] = test system: XF-498 (human CNS); assay: as above; format: cell-based; conditions: XF-498, SRB assay, 48 hours
Method: as §1, §2, §3

[5] = test system: A549 (human non-small lung cell); assay: as above; format: cell-based; conditions: 48 hours
Method: as §1, §2, §3

[6] = test system: P388 (mouse lymphoid neoplasma cell); assay: Dye exclusion assay, in vitro antitumor effects against animal leukemia cells; format: cell-based; conditions: P388, trypan blue dye exclusion, 48 hours, read-out: concentration showing 50% cell growth inhibition (IC50)
Description: Experimental 2: In Vitro Antitumor Effects Against Animal Leukemia Cells. A. Material:
Tumor cell lines: P388 (mouse lymphoid neoplasma cell)
B. Method: Dye Exclusion Assay.

[7] = Acute toxicity test (LD50), Litchfield-Wilcoxon method; conditions: male, mouse, in vivo; iv, ICR mice, observed 14 days
Method: Experimental 4. Acute Toxicity Test (LD50): a) Method: Litchfield-Wilcoxon Method.
6-week-old ICR mice (male 30 2.0 g) were fed freely with solid feed and water at room temperature, […], and at humidity 60 5%. Sample drugs were injected into the abdominal cavities of mice. Each group comprised 6 mice. […] LD50 value was calculated by Litchfield-wilcoxon method.

[8] = test system: Leukemia P388 cells; assay: In vivo antitumor effects against mouse leukemia P388 cells; conditions: abdominal cavity, days 1, 5, 9, BDF1 mice with P388
Method: Experimental 3: In Vivo Antitumor Effects Against Mouse Leukemia P388 Cells A. Material of Experiment • BDF1 mice were used. B. Method of Experiment • 1) Leukemia P388 cells being transfer-cultured successively in DBA/2 mouse, were grafted into each mouse of a group comprising 8 mice of 6 week old BDF1 mouse with the dose of 1×10^6 cells/0.1 ml • 2) Sample drugs were dissolved in PBS or suspended in 0.5% tween 80, and then injected into abdominal cavity of mouse at each prescribed concentration on days 1, 5, 9, respectively. • 3) With observation everyday, survival times of tested mice were measured. Antitumor activities was deternimed in such a manner that the increasing ratio (T/C %) of average survival days of drug-treated groups compared with the control group was calculated using the mean survival times of each tested groups.

Row | IC50 [6] [µg/mL] | SMILES | ED50 [1] [µg/mL] | ED50 [2] [µg/mL] | ED50 [3] [µg/mL] | ED50 [4] [µg/mL] | ED50 [5] [µg/mL] | LD50 at 14 days [7] [mg/kg] | MST ([8]; Dose 25 mg/kg) [days] | T/C (%) ([8]; Dose 25 mg/kg) | MST ([8]; Dose 50 mg/kg) [days] | T/C (%) ([8]; Dose 50 mg/kg) | MST ([8]; Dose 100 mg/kg) [days] | T/C (%) ([8]; Dose 100 mg/kg)
1 | – | N.N.[Cl][Pt][Cl] [Cisplatin, cisplatin, reference compound] | 0.71 | 3.03 | 0.71 | 0.77 | 0.81 | – | – | – | – | – | – | –
2 | 0.9 (≈ 1.14 µM) | CCc1nc(OC)c(NC(=O)N2CCN(c3cc(F)cc(F)c3)CC2)cc1C(=O)NC(C)C(=O)Nc1cc(CO)cc(Nc2c3ccccc3nc3ccccc23)c1 (stereo not shown) [Example 4, 4-(3,5-difluorophenyl)piperazine-1-carboxylic acid (5-{1-[3-(acridine-9-yl-amino)-5-hydroxymethylphenylcarbamoyl]-ethylcarbamoyl}-6-ethyl-2-methoxypyridine-3-yl)amide] | – | – | – | – | – | – | – | – | – | – | – | –
3 | 0.4 (≈ 0.484 µM) | CCCc1nc(OC)c(NC(=O)N2CCN(c3cc(OC)cc(OC)c3)CC2)cc1C(=O)NC(C)C(=O)Nc1cc(CO)cc(Nc2c3ccccc3nc3ccccc23)c1 (stereo not shown) [Example 9, 4-(3,5-dimethoxyphenyl)piperazine-1-carboxylic acid (5-{1-[3-(acridine-9-yl-amino)-5-hydroxymethylphenylcarbamoyl]-ethylcarbamoyl}-2-methoxy-6-propylpyridine-3-yl)-amide] | 0.15 (≈ 0.181 µM) | 0.15 (≈ 0.181 µM) | 0.19 (≈ 0.23 µM) | 0.15 (≈ 0.181 µM) | 0.24 (≈ 0.29 µM) | – | – | – | – | – | – | –
4 | 0.3 (≈ 0.371 µM) | CCc1nc(OC)c(NC(=O)N2CCN(c3cc(C)cc(C)c3)CC2)cc1C(=O)NC(C)C(=O)Nc1cc(CO)cc(Nc2c3ccccc3nc3c(C)c(C)ccc23)c1 (stereo not shown) [Example 16, 4-(3,5-dimethylphenyl)piperazine-1-carboxylic acid (5-{1-[3-(3,4-dimethylacridine-9-yl-amino)-5-hydroxymethylphenylcarbamoyl]-ethylcarbamoyl}-6-ethyl-2-methoxypyridine-3-yl)amide] | 0.02 (≈ 0.0247 µM) | 0.07 (≈ 0.0865 µM) | 0.14 (≈ 0.173 µM) | 0.09 (≈ 0.111 µM) | 0.08 (≈ 0.0989 µM) | – | – | – | – | – | – | –
5 | – | CCc1nc(OC)c(NC(=O)N2CCN(c3cc(C)cc(C)c3)CC2)cc1C(=O)Nc1cc(CO)cc(Nc2c3ccccc3nc3ccccc23)c1 [Example 19, 4-(3,5-dimethylphenyl)-piperazine-1-carboxylic acid{5-[3-(acridine-9-yl-amino)-5-hydroxymethylphenylcarbamoyl]-6-ethyl-2-methoxy-pyridine-3-yl}amide] | 0.18 (≈ 0.254 µM) | 0.27 (≈ 0.38 µM) | 0.17 (≈ 0.239 µM) | 0.38 (≈ 0.535 µM) | 0.21 (≈ 0.296 µM) | – | – | – | – | – | – | –

Row | SMILES | IC50 [6] [µg/mL] | ED50 [1] [µg/mL] | ED50 [2] [µg/mL] | ED50 [3] [µg/mL] | ED50 [4] [µg/mL] | ED50 [5] [µg/mL] | LD50 at 14 days [7] [mg/kg] | MST ([8]; Dose 25 mg/kg) [days] | T/C (%) ([8]; Dose 25 mg/kg) | MST ([8]; Dose 50 mg/kg) [days] | T/C (%) ([8]; Dose 50 mg/kg) | MST ([8]; Dose 100 mg/kg) [days] | T/C (%) ([8]; Dose 100 mg/kg)
6 | CCc1nc(OC)c(NC(=O)N2CCN(c3cc(C)cc(C)c3)CC2)cc1C(=O)NC(C)C(=O)Nc1cc(CO)cc(Nc2c3ccccc3nc3ccccc23)c1 (stereo not shown) [Example 2, 4-(3,5-dimethylphenyl)piperazine-1-carboxylic acid (5-{1-[3-(acridine-9-yl-amino)-5-hydroxymethylphenylcarbamoyl]-ethylcarbamoyl}-6-ethyl-2-methoxypyridine-3-yl)amide] | 0.3 (≈ 0.384 µM) | 0.01 (≈ 0.0128 µM) | 0.19 (≈ 0.243 µM) | 0.12 (≈ 0.154 µM) | 0.18 (≈ 0.23 µM) | 0.12 (≈ 0.154 µM) | 80 | >60.0 | >545.5 | >60.0 | >545.5 | 22.0 | 200.0
7 | CCc1nc(OC)c(NC(=O)N2CCN(c3cc(OC)cc(OC)c3)CC2)cc1C(=O)NC(C)C(=O)Nc1cc(CO)cc(Nc2c3ccccc3nc3ccccc23)c1 (stereo not shown) [Example 3, 4-(3,5-dimethoxyphenyl)piperazine-1-carboxylic acid (5-{1-[3-(acridine-9-yl-amino)-5-hydroxymethylphenylcarbamoyl]-ethylcarbamoyl}-6-ethyl-2-methoxypyridine-3-yl)amide] | 1 (≈ 1.23 µM) | 0.03 (≈ 0.0369 µM) | 0.13 (≈ 0.16 µM) | 0.19 (≈ 0.234 µM) | 0.18 (≈ 0.221 µM) | 0.12 (≈ 0.148 µM) | 80 | 17.0 | 154.5 | >60.0 | >545.5 | 11.6 | 100.0
